Key:
[1] = test system: Trypanosoma cruzi; assay: Antitrypanosomal activity against epimastigote stage of Trypanosoma cruzi Y assessed as reduction in parasitic count after 96 hrs by Neubauer hemocytometry; type: functional, organism-based
[2] = test system: Trypanosoma cruzi; assay: Antitrypanosomal activity against trypomastigote stage of Trypanosoma cruzi Y assessed as reduction in parasitic viability after 24 hrs by Pizzi-Brener method; type: functional, organism-based
[3] = test system: Leishmania amazonensis; assay: Antileishmanial activity against promastigote stage of Leishmania amazonensis MHOM/BR/75/Josefa assessed as reduction in parasitic count after 72 hrs by Neubauer hemocytometry; type: functional, organism-based
[4] = Cytotoxicity against African green monkey Vero cells after 72 hrs by MTT assay; type: cell-based; conditions: chlorocebus sabaeus
[5] = test system: Leishmania donovani; assay: Antileishmanial activity against promastigote stage of Leishmania donovani after 2 hrs by [3H]thymidine incorporation assay; type: functional, organism-based

| Compound | IC50 [1] [µM] | EC50 [2] [µM] | IC50 [3] [µM] | IC50 [5] [µM] | CC50 at 72 h [4] [µM] |
| --- | --- | --- | --- | --- | --- |
| COc1ccc(/C=C(\C)C(=O)/C=C/c2cccc(Br)c2)cc1 | 17.2 | 20.3 | 17.2 | – | 152 |
| O=C(Cn1ccnc1[N+](=O)[O-])NCc1ccccc1 [BENZNIDAZOLE] | 6.5 | 34.5 | – | – | – |
| CC/C(=C\c1ccc(Cl)cc1)C(C)=O | > 100 | > 100 | 58 | – | 136 |
| COc1ccc(/C=C(\C)C(=O)/C=C/c2cccc(Cl)c2Cl)cc1 | 16.8 | 14.8 | 13.8 | – | 119 |
| COc1ccc(/C=C(\C)C(=O)/C=C/c2c(Cl)cccc2Cl)cc1 | 19.6 | 27.9 | 8.2 | – | 65.7 |
| COc1ccc(/C=C(\C)C(=O)/C=C/c2ccccc2Br)cc1 | 21.7 | 25 | 21.7 | – | 71 |
| COc1cc(/C=C/C(=O)c2ccc(O)c(O)c2)c(OC)c(OC)c1O | – | – | – | 3.7 | – |
| COc1ccc(/C=C(\C)C(C)=O)cc1 | > 100 | > 100 | > 100 | – | 240 |
| COc1ccc(/C=C(\C)C(=O)/C=C/c2ccc(/C=C/C(=O)/C(C)=C/c3ccc(OC)cc3)cc2)cc1 | > 100 | > 100 | 76.3 | – | 460 |
| COc1ccc(/C=C(\C)C(=O)/C=C/c2ccc(Cl)cc2)cc1 | 18.9 | 23 | 13.8 | – | 87 |
| CC/C(=C\c1ccc(Cl)cc1)C(=O)/C=C/c1ccc(C=O)cc1 | 65.2 | 74.2 | 17.4 | – | 46.9 |
| COc1ccc(/C=C(\C)C(=O)/C=C/c2ccccc2Cl)cc1 | 17.8 | 21.8 | 19.5 | – | 74.3 |
| COc1ccc(/C=C(\C)C(=O)/C=C/c2ccc(Br)cc2)cc1 | 20 | 21.1 | 17.3 | – | 31.2 |

Continued, in another order:

| IC50 [1] [µM] | EC50 [2] [µM] | IC50 [3] [µM] | IC50 [5] [µM] | Compound | CC50 at 72 h [4] [µM] |
| --- | --- | --- | --- | --- | --- |
| 5.4 | 19.5 | 1.4 | – | CC/C(=C\c1ccc(Cl)cc1)C(=O)/C=C/c1ccc(Br)cc1 | 29.4 |
| 9.7 | 66.7 | 9.8 | – | COc1ccc(/C=C(\C)C(=O)/C=C/c2ccc(OC)c(OC)c2)cc1 | 74.2 |
| 6.1 | 69.2 | 3.7 | – | COc1ccc(/C=C(\C)C(=O)/C=C/c2cc(OC)c(OC)c(OC)c2)cc1 | 21.4 |
| 15.2 | 67.6 | 32.2 | – | COc1ccc(/C=C(\C)C(=O)/C=C/c2ccccc2F)cc1 | 81.2 |
| 5.5 | 19.1 | 2 | – | CC/C(=C\c1ccc(Cl)cc1)C(=O)/C=C/c1cccc(OC)c1OC | 21.8 |
| 15.1 | 19.7 | 19.3 | – | COc1ccc(/C=C(\C)C(=O)/C=C/c2ccc(F)cc2)cc1 | 68.1 |
| 2.5 | 17.9 | 0.5 | – | CC/C(=C\c1ccc(Cl)cc1)C(=O)/C=C/c1ccc([N+](=O)[O-])cc1 | 36 |
| 10.2 | 25.6 | 2.4 | – | CC/C(=C\c1ccc(Cl)cc1)C(=O)/C=C/c1ccc(Cl)cc1 | 28.3 |
| 2.8 | 7.6 | 2.9 | – | CC/C(=C\c1ccc(Cl)cc1)C(=O)/C=C/c1ccc2c(c1)OCO2 | 27.1 |
| 1.8 | 20 | 1.3 | – | CC/C(=C\c1ccc(Cl)cc1)C(=O)/C=C/c1ccccc1Br | 24.4 |

Reference: ChEMBL document CHEMBL3817790 (Medchemcomm, 2016)
